Test results: patent publication US20180140578A1, “METHODS AND COMPOSITIONS FOR THE DIAGNOSIS AND SELECTIVE TREATMENT OF CANCER” (Board of Regents of the University of Texas System, priority 2016, published 2018)
“Also recorded” adds a separate entry of the source. Read-outs that look alike come from different tables or passages of the source.

Assays:
[1] = tested on: non-small cell lung cancer cell lines; assay: IC50 assay, U2AF1 S34F vs wild type NSCLC cell lines; assay type: cell-based, human; conditions: four S34F vs sixty-six wild type lines; p=0.01
Procedure: (§1) Cells were plated at ˜15% confluence in a media comprising 5% concentration of fetal bovine serum supplemented with RPMI, which included 2 mM L-Glutamine in a 96 well dish. […] Following three days of incubation in a 5% CO2 incubator, the total ATP in each well was quantified using Cell Titer Glo (Promega). […] The solid lines represent the medians.

[2] = tested on: H1155 RBM39 G268V knock-in cells; assay: Cell viability assay, RBM39 G268V knock-in; assay type: cell-based, human
Procedure: (§2) 12-point dose responses were performed on 96-well assay plates with cell plating (1500-4000 cell per well) on day 1, compound addition on day 2, and survival measurement on day 5. Compounds were diluted in DMSO before adding to the cells. Final DMSO concentration was 0.5%. Cell survival assay was performed using CellTiter-Glo Luminescent Cell Viability Assay kit (Promega) that measures cellular ATP content. Luminescence was recorded by EnVison multimode plate reader (Perkin Elmer). IC50 was determined with GraphPad Prism using baseline correction (by normalizing to DMSO control), the asymmetric (five parameter) equation and least squares fit.
(§3) sgRNA targeting RBM39 (5′-[…]-3′) was cloned into the pSpCas9(BB)-2A-Puro (PX459) vector (Addgene 62988). For RBM39 G268V knock-in, 1 million HCT-116 or H1155 cells were nucleofected (using 4D-Nucleofector, Lonza) with PX459-RBM39 sgRNA and the single-stranded oligo 5′-[…] […] […] […]-3′ (SEQ ID NO: 13).

[3] = tested on: HCT-116 RBM39 G268V knock-in cells; assay: Cell viability assay, RBM39 G268V knock-in; assay type: cell-based, human
Procedure: as §2, §3

[4] = tested on: H2073; assay: IC50 assay, NSCLC cell lines (Cell Titer Glo, total ATP); assay type: cell-based, human
Procedure: as §1

[5] = tested on: H650; assay: as above; assay type: cell-based, human; conditions: U2AF1 WT (listed twice)
Procedure: as §1

[6] = tested on: tumors derived from HCT-116 cells expressing RBM39 G268V; assay: Mouse xenograft model, HCT-116 RBM39 G268V; assay type: in vivo, Nod-Scid IL-2Rγ KO mice
Procedure: All animal work was approved by the Institutional Animal Care and Use Committee at UTSW. UTSW is accredited by the Association for Assessment and Accreditation of Laboratory Animal Care International (AAALAC). Animals were obtained from the UTSW Breeding Core Facility. Nod-Scid IL-2Rγ KO mice were implanted with 5 million parental HCT-116 cells or HCT-116 cells expressing RBM39 G268V in a volume of 0.1 ml in the left flank. Tumor volumes were measured every 2-4 days with calipers. Volume is calculated as (L*W^2)*3.14)/6.

[7] = tested on: pre-mRNA splicing in HCT-116 cells; assay: RNA-seq analysis of splicing changes, parental HCT-116; assay type: cell-based, human; conditions: 2 μM indisulam
Source text: RNAs were extracted using Quick-RNA MiniPrep kit (Zymo Research). After cleaning up genomic DNA contaminant with Turbo DNase (Life Technologies) and rRNA depletion, strand-specific cDNA libraries were generated using the TruSeq Stranded mRNA Sample Prep Kit (IIlumina) and were subjected to high throughput sequencing using
HiSeq2500 platform (Illumina) with 100-bp single-end reads. NGS QC Toolkit (v2.3.1) (49) was used to check the sequencing quality, and high-quality reads were aligned by TopHat (v2.0.8) (50) to human reference genome (hg19) along with the gene annotation data downloaded from Illumina's iGenomes (support.illumina.com/sequencing/sequencing_software/igenome.ilmn). The insert-size metrics required in TopHat execution and the correctness of strand specificity were estimated by mapping reads to human transcript sequences using Bowtie (v2.1.0) (51) and Picard-tools (v1.99) (picard.sourceforge.net). The htseq-count script distributed with the HTSeq Python package (0.6.1) (pypi.python.org/pypi/HTSeq) was employed for counting reads in genes considering the coding strands. Source data for RNA sequencing data is available under NCBI SRA accession SRP096666.
For the stringent detection of differential skipped exons and retained introns, a custom program called SpliceFisher was developed and it is downloadable at github.com/jiwoongbio/SpliceFisher. Exonic and intronic regions were defined as annotated in the reference genome. To estimate differential exon skipping events, the numbers of exon-junction reads (panels a and b in FIG. 16) and exon-skipping reads (panel c in FIG. 16) observed in a sample were compared to the numbers observed in another sample. […] Additionally, the number of reads mapped to the target region (panel d in FIG. 16) and other exonic regions of the gene (panel e in FIG. 16) were also compared between samples. The read counts were evaluated by multiple Fisher's exact tests in three two-by-two tables using R and then the p-values were adjusted using FDR by each comparison type. Differential alternative splicing events were identified with all three adjusted p-values less than 0.01. The differential alternative splice sites and mutually exclusive exons were additionally detected by a similar method using the numbers of splicing reads supporting each junction.

NS(=O)(=O)c1ccc(S(=O)(=O)Nc2cccc3c(Cl)c[nH]c23)cc1 [Indisulam, indisulam]
sensitivity of U2AF1 S34F vs U2AF1 wild type NSCLC cell lines [1]: more sensitive | effect of G268V editing on indisulam sensitivity [2]: indisulam resistance | IC50 ([3]; Homo sapiens, HCT-116, two independent RBM39 G268V knock-in HCT-116 clones): 38.9 µM | IC50 ([3]; two independent RBM39 G268V knock-in HCT-116 clones): 52.2 µM | IC50 ([4]; Homo sapiens, NCI-H2073, read-out: Indisulam IC50 (log 10) (converted), U2AF1 WT): 2.57 µM | IC50 ([4]; read-out: Indisulam IC50, U2AF1 WT): 2.57 µM | Indisulam IC50 (log 10) ([5]; H650): −4.839 (log 10) (M) | IC50 ([5]; Homo sapiens, NCI-H650, read-out: Indisulam IC50 (log 10), H650 (converted)): 13.6 µM | IC50 ([5]; Homo sapiens, NCI-H650, read-out: Indisulam IC50, H650): 13.6 µM | IC50 ([5]; read-out: Indisulam IC50, H650): 14.5 µM | tumor response ([6]; 25 mg/kg indisulam intravenous once a day for eight days, RBM39 G268V): grew at a rate indistinguishable from that of the control group; also recorded: resistant | Average maximal weight loss from start of therapy to 1 day post final dose ([6]; G268V xenograft, 25 mg/kg once a day for eight days): 8.4% | exon skipping events ([7]; 6 hours): 327 | introns retained ([7]; 6 hours): 107 | exon skipping events ([7]; 12 hours): 837 | introns retained ([7]; 12 hours): 303
